US20120035112A1, “NEURONAL DIFFERENTIATION-INDUCING PEPTIDE AND USE THEREOF” (Toagosei Co., Ltd., priority 2009, published 2012)

These sequences were tested on mouse neuronal stem cells (assay: Evaluation of neuronal differentiation-inducing activities of synthesized peptides (β3-tubulin fluorescence antibody method, DAPI nuclear stain)). Settings: peptide 0.5 μM, 7 days culture in mouse neuronal stem cell growth medium; compared with positive control (differentiation medium, FIG. 16).
Assay type: cell-based
Protocol: The neuronal differentiation-inducing activities of the synthesized peptides obtained in Example 1 (Samples 1 to 15) were examined.
That is, the sample peptide was added to a culture broth of neuronal stem cells collected from a mouse (mouse neuronal stem cell growth medium, a product of Cell Applications), and incubated. Addition was carried out to a concentration of 0.5 μM for each peptide.
Next, once 7 days had elapsed following peptide addition, each of the cultured cells was nuclear stained with DAPI (4′,6-diamidino-2-phenylindole) and examined with a fluorescence microscope. In addition, evaluation with a neuronal differentiation induction marker was carried out on the same samples. That is, using tubulin (specifically, β3-tubulin) as the marker for identifying neurons (nerve cells), the presence of tubulin (i.e., the presence or absence of neurons) within the culture solution was checked by a fluorescence antibody method using a fluorochrome-labeled anti-tubulin antibody for tubulin identification. The number of each figure corresponds to the number of the sample peptide used.
Each of these figures is a fluorescence micrograph (image) obtained by examining the state of neuronal differentiation by mouse neuronal stem cells following addition of the respective sample peptides and 7 days of culturing. The image was prepared by merging a DIC image, a DAPI nuclear stain image, and a fluorescence image showing the results of an investigation by an immune antibody method using fluorochrome-labeled anti-tubulin antibody.
(§1) As a positive control, mouse neuronal stem cells were cultured in a mouse neuronal stem cell differentiation medium (product of Cell Applications) without adding any of the peptides. When 7 days had elapsed following the start of culturing, treatment and fluorescence microscopic examination were carried out in the same way as described above.
as §1, with “negative” for “positive”, “[…]” for “differentiation”
ALLLLAAWTVRAGKKRTLRKNDRKKR [Sample 7] was tested, and the neuronal differentiation-inducing activity was “particularly high neuronal differentiation-inducing activities”.
In the case of LALLLLAAWTVRAGKKRTLRKNDRKKR [Sample 6], the neuronal differentiation-inducing activity is reported as “particularly high neuronal differentiation-inducing activities”.
For LLLLAAWTARAGKKRTLRKNDRKKR [Sample 2], the neuronal differentiation-inducing activity was “particularly high neuronal differentiation-inducing activities”.
In the case of LLLLAAWTVRAGKKRTLRKNDRKKR [Sample 8], the neuronal differentiation-inducing activity is reported as “particularly high neuronal differentiation-inducing activities”.
